Patent US20230405052A1, “PHARMACEUTICAL COMPOSITION FOR PREVENTING OR TREATING FIBROSIS, COMPRISING ISOLATED MITOCHONDRIA” (Paean Biotechnology Inc., priority 2020, published 2023)

How the values were obtained:
Assay type in all cases: cell-based
[1] = tested on: human lung fibroblast CCD8-Lu cells; assay: Quantitative real-time PCR of fibrosis genes in TGF-β-treated CCD8-Lu fibroblasts; details: qRT-PCR, 10 μg mitochondria or 1 μM nintedanib, 18 hours after 6 hours TGF-β
Description: (§1) In order to analyze the anti-fibrotic activity of mitochondria, a cell-based analysis experiment was performed using a quantitative real-time polymerase chain reaction.
(§2) CCD8-Lu cells and Wi-38 cells, which are human lung-derived fibroblasts, were cultured in DMEM medium containing 10% FBS, respectively. The cells were inoculated into a 6 well plate at about 2×10^5 cells/well and cultured for 24 hours, and then depletion conditions were performed in DMEM medium without FBS for about 24 hours. After 24 hours, the cells were treated with TGF-β at a concentration of 2.5 ng/mL, and then fibrosis of the cells was induced for 6 hours. After 6 hours, the cells were washed twice with PBS to completely remove the remaining TGF-β. Next, the mitochondria isolated from HEK293, UC-MSC and BM-MSC cells in Preparation Example 1 were mixed in DMEM medium, and the cells were treated with the mitochondria and then further cultured for 18 hours (FIG. 1). At this time, the negative control group was not treated with anything, the positive control group was treated with TGF-β alone at a concentration of 5 ng/mL, and the experimental groups were treated with 10 μg of mitochondria isolated from each cell, respectively. […]
(§3) After 18 hours of mitochondria treatment, the culture solution was removed, and the cells were washed twice with a PBS buffer solution, and 0.5 mL of RNA extract (Trizol reagent, Thermo Fisher Scientific) was added directly and then stood at ambient temperature for 10 minutes. […] After drying, about 50 μl of purified RNAase-free distilled water was added, and the quantity and purity of the obtained RNA was measured using a spectrophotometer. […]
Changes in the expression of the alpha actin smooth muscle (α-SMA) gene, a characteristic gene of myofibroblast, the CCN2 (or CTGF) gene, a characteristic gene of fibrosis, fibronectin, a characteristic gene of fibrosis, and the NOX-4 gene, a characteristic gene of fibrosis, were observed by quantitative real-time polymerase chain reaction. The GAPDH gene was quantified together to calibrate for differences in the expression.

[2] = tested on: human lung fibroblast Wi-38 cells; assay: Quantitative real-time PCR of fibrosis genes in TGF-β-treated Wi-38 fibroblasts; details: qRT-PCR, 10 μg mitochondria or 1 μM nintedanib, 18 hours after 6 hours TGF-β
Description: as §1
as §2, with “1).” for “1). At this time, the negative control group was not treated with anything, the positive control group was treated with TGF-β alone at a concentration of 5 ng/mL, and the experimental groups were treated with 10 μg of mitochondria isolated from each cell, respectively.”
as §3

[3] = tested on: human lung fibroblast CCD8-Lu cells; assay: Western blotting of CTGF expression (FIG. 6); details: western blotting (FIG. 6), 5 μg mitochondria, 18 hours after 6 hours 2.5 ng/mL TGF-β
Description: In order to observe whether the expression of CTGF, a key gene for fibrosis, is regulated by mesenchymal stem cell-derived mitochondria, a cell-based analysis experiment was performed using a Western analysis method.
CCD8-Lu cells (FIG. 6A) and Wi-38 cells (FIG. 6B), which are human lung-derived fibroblasts, were cultured in DMEM medium containing 10% FBS. The cells were inoculated into a 6 well plate at about 2×10^5 cells/well and cultured for 24 hours, and then depletion conditions were performed in DMEM medium without FBS for about 24 hours.
After 24 hours, the cells were treated with TGF-β at a concentration of 2.5 ng/mL, and then fibrosis of the cells was induced for 6 hours. After 6 hours, the cells were washed twice with PBS to completely remove TGF-β. Next, in the same manner as in Preparation Example 1, the mitochondria isolated from UC-MSC and HEK293 cells were mixed in DMEM medium, and the cells were treated with the mitochondria and then further cultured for 18 hours (FIG. 3). […]
The separated supernatant was obtained and transferred to a new microtube, and then protein was quantified using the BCA analysis method. […]

[4] = tested on: human lung fibroblast CCD8-Lu cells; assay: Cell immunochemical staining of collagen 1A and fibronectin (FIG. 5); details: immunostaining (FIG. 5), 5 μg mitochondria or 1 mM pirfenidone, after 6 hours 2.5 ng/mL TGF-β
Description: In order to analyze the anti-fibrotic activity of stem cell-derived mitochondria, a cell-based analysis experiment was performed using a […].
CCD8-Lu cells, which are human lung-derived fibroblasts, were cultured in DMEM medium containing 10% FBS. Thereafter, the cells were inoculated into a 24 well plate at about 2×10^4 cells/well, cultured for 24 hours, and then reacted in DMEM medium without FBS for about 24 hours. After 24 hours, the cells were treated with TGF-β at a concentration of 2.5 ng/mL, and then fibrosis of the cells was induced for 6 hours. After 6 hours, the cells were washed twice with PBS to completely remove TGF-β. Next, the mitochondria isolated from umbilical cord blood mesenchymal stem cell UC-MSC, bone marrow mesenchymal stem cell BM-MSC, dedifferentiated stem cell iPSC and HEK293 cells obtained in Preparation Example 1 were mixed in DMEM medium, and the cells were treated with the mitochondria and then further cultured for 18 hours (FIG. 4). […]
Immunohistochemical analysis for each sample was performed as follows. […] The nucleus was stained using DAPI (4,6-diamidino-2-phenylindole), and analysis of differences in fluorescence intensity was performed using a fluorescence microscope.

Structure (SMILES) | expression of CTGF gene induced by TGF-β [1] | expression of NOX-4 gene induced by TGF-β [1] | expression of alpha actin smooth muscle (α-SMA) gene induced by TGF-β [1] | expression of CTGF gene induced by TGF-β [2] | expression of alpha actin smooth muscle (α-SMA) gene induced by TGF-β [2] | expression of CTGF protein induced by TGF-β [3] | expression of collagen 1A induced by TGF-β (fluorescence intensity) [4] | expression of fibronectin induced by TGF-β (fluorescence intensity) [4]
COC(=O)c1ccc2c(c1)NC(=O)/C2=C(\Nc1ccc(N(C)C(=O)CN2CCN(C)CC2)cc1)c1ccccc1 [nintedanib] | weakly inhibited or hardly inhibited | weakly inhibited or hardly inhibited | weakly inhibited or hardly inhibited | weakly inhibited or hardly inhibited | weakly inhibited or hardly inhibited | hardly inhibited |  | 
Cc1ccc(=O)n(-c2ccccc2)c1 [pirfenidone] |  |  |  |  |  |  | weakly inhibited or hardly inhibited | weakly inhibited or hardly inhibited
